Experimental data published in patent US20260216204A1, “METHODS FOR TREATING LOWER RISK MYELODYSPLASTIC SYNDROME” (Constellation Pharmaceuticals, Inc., priority 2022, published 2026).

Key:
[1] = tested on: IL-6 release of primary MDS patient PBMCs stimulated with LPS; test: IL-6 release of LPS-stimulated primary MDS patient PBMCs, electrochemiluminescence immunoassay (nine-point titration); type: cell-based, human; settings: n=2 donors, FIG. 1
Procedure: This study was performed to evaluate the anti-inflammatory activity of pelabresib on MDS patient cells from different donors. The NF-kB pathway is central in regulating cytokines such as TNF-α, IL-6, and IL-8 which are elevated in MDS patients and play role in the pathogenesis of myelodysplastic syndromes (Ref: e.g. doi: 10.1097/MD.0000000000015844). Primary MDS patient samples (cryopreserved peripheral blood mononuclear cells (PBMCs)) were purchased from Discovery Life Sciences. For sample selection, we chose patients with low blast count (ideally below 5%), excluded patients with multilineage dysplasia and (if available) checked blood parameters such as white blood cell count and disease staging notes in order to select patients that show LR-MDS characteristics. Freshly thawed PBMCs were seeded at 50 000 cells/well in a 96-well flat bottom plate. 0.001 μg/mL lipopolysaccharide (LPS-B5, Invivogen) were added to induce IL-6 production. […] After centrifugation, the supernatant of the cells was collected and IL-6 protein in the supernatant was quantified using Human IL-6 Kit (V-PLEX, Meso Scale Discovery). The assay plates were read on a Meso Sector S600. […] The half maximal inhibitory concentration (IC50) was calculated by logarithmic transformation of the compound concentrations and applying “log(inhibitor) vs. response—variable slope (four parameters)”—function.

[2] = tested on: IL-6 release of primary MDS patient PBMCs stimulated with LPS; test: Cytokine release of LPS-stimulated primary MDS patient PBMCs (eight-point titration): IL-6; type: cell-based, human; settings: 5 μM to 8.2 nM, normalized to DMSO only, n=7-10 donors, FIG. 3
Procedure: (§1) Primary MDS patient samples (cryopreserved peripheral blood mononuclear cells (PBMCs)) were purchased from Discovery Life Sciences. For sample selection, we chose patients with low blast count (ideally below 5%), excluded patients with multilineage dysplasia and (if available) checked blood parameters such as white blood cell count and disease staging notes in order to select patients that show LR-MDS characteristics. Freshly thawed PBMCs were seeded at 50 000 cells/well in a 96-well flat bottom plate. 0.001 μg/mL lipopolysaccharide (LPS-B5, Invivogen) were added to induce IL-6 production. […] After centrifugation, the supernatant of the cells was collected and IL-6 protein in the supernatant was quantified using Human IL-6 Kit (V-PLEX, Meso Scale Discovery). The assay plates were read on a Meso Sector S600. […] The half maximal inhibitory concentration (IC50) was calculated by logarithmic transformation of the compound concentrations and applying “log(inhibitor) vs. response—variable slope (four parameters)”—function. […] After centrifugation, the supernatant of the cells was collected and IFNγ, TNFα, IL-6, IL-8 or IL-10 protein in the supernatant was quantified using Proinflammatory Panel 1 Human Kit (IFNγ, TNFα, IL-6 and IL-10) or Human IL-8 Kit (both V-PLEX, Meso Scale Discovery). The assay plates were read on a Meso Sector S600. […]

advanced MF patients = settings: cited from earlier work
[3] = tested on: inflammatory cytokine regulated by the NF-κB pathway; settings: lymphoma and MF patients; cited from earlier work
[4] = tested on: IFNγ release of primary MDS patient PBMCs stimulated with LPS; test: Cytokine release of LPS-stimulated primary MDS patient PBMCs (eight-point titration): IFNγ; type: cell-based, human; settings: 5 μM to 8.2 nM, normalized to DMSO only, n=7-10 donors, FIG. 3
Procedure: as §1

[5] = tested on: IL-10 release of primary MDS patient PBMCs stimulated with LPS; test: Cytokine release of LPS-stimulated primary MDS patient PBMCs (eight-point titration): IL-10; type: cell-based, human; settings: 5 μM to 8.2 nM, normalized to DMSO only, n=7-10 donors, FIG. 3
Procedure: as §1

[6] = tested on: TNFα release of primary MDS patient PBMCs stimulated with LPS; test: Cytokine release of LPS-stimulated primary MDS patient PBMCs (eight-point titration): TNFα; type: cell-based, human; settings: 5 μM to 8.2 nM, normalized to DMSO only, n=7-10 donors, FIG. 3
Procedure: as §1

[7] = tested on: CD34+ stem cells derived from LR-MDS donors; test: Erythropoiesis of hematopoietic stem cells (CD34+) isolated from MDS patient bone marrow, flow cytometry; type: cell-based, human; settings: pelabresib monohydrate 500 nM to 31.25 nM tested; FIG. 2 at 250 nM with erythroid expansion supplement, day 7, n=2 donors
From the text: Primary MDS patient samples (cryopreserved bone marrow mononuclear cells (BMMCs)) were purchased from Discovery Life Sciences. For sample selection, we chose patients with low blast count (ideally below 5%), excluded patients with multilineage dysplasia and (if available) checked blood parameters such as white blood cell count and disease staging notes in order to select patients that show LR-MDS characteristics. Hematopoietic stem cells (CD34+) were isolated with EasySep Human CD34+ selection Kit II (StemCell Technologies) using freshly thawed cells. Cells were seeded at 1000 cells/well (for erythropoiesis) or 2500 cells/well (for CC100 differentiation mix) in a 96-flat-well plate. Differentiation cocktails StemSpan™ Erythroid Expansion Supplement (for Erythropoieses) or StemSpan™ CC100 (differentiation mix) were added according to the manufacturer's instructions. A 5-point titration series of pelabresib monohydrate with concentrations ranging from 500 nM to 31.25 nM was tested in duplicate. “DMSO only” treated wells served as control and were also used to prepare flow cytometry controls (such as FMOs). […] On day 7 cells were analysed via flow cytometry. […] Among the viable cells the percentage of CD34+CD71+ (megakaryocyte-erythroid progenitors (MEP)) and percentage of CD34−CD71+ (pro-erythroblasts/erythroblasts (pro-EB/EB)) was determined and depicted in GraphPad Prism 8 per donor.

[8] = tested on: erythrocyte progenitors in bone marrow biopsy; settings: semi-quantitative CD71 IHC, baseline vs Week 24, 22 out of 37; cited from earlier work
[9] = tested on: CD34+ cells isolated from blood samples of healthy donors and MF patients; settings: cited from earlier work
[10] = tested on: IL-8 release of primary MDS patient PBMCs stimulated with LPS; test: Cytokine release of LPS-stimulated primary MDS patient PBMCs (eight-point titration): IL-8; type: cell-based, human; settings: 5 μM to 8.2 nM, normalized to DMSO only, n=7-10 donors, FIG. 3
Procedure: as §1

[11] = tested on: transfusion dependent MF patients; settings: Arm 2, pelabresib in addition to ruxolitinib; cited from earlier work

## Cc1noc2c1-c1ccccc1C(c1ccc(Cl)cc1)=N[C@H]2CC(N)=O [pelabresib, 2-((4S)-6-(4-chlorophenyl)-1-methyl-4H-benzo[c]isoxazolo[4,5-e]azepin-4-yl)acetamide]
[1]; 5 μM to 3.3 nM, dose dependent
  IL-6 release in donor PBMCs: suppressed IL-6 release
[1]; Homo sapiens, PBMC, 0.001 μg/mL LPS, approx. 18 hours, normalized to DMSO only control
  IC50: 248 nM
[2]
  release of IL-6: suppressed release
Advanced MF patients; Arm 1, monotherapy
  median duration of RBC-TI: 44 weeks
  transfusion dependent relapsed/refractory MF patients who achieved RBC-TI ≥12 weeks: 21%
Advanced MF patients; monotherapy, 11 out of 19
  patients who achieved ≥1.5 g/dL increase in Hgb levels without transfusion: 57.9%
[3]
  levels of inflammatory cytokine regulated by the NF-κB pathway: can decrease the levels
[4]
  release of IFNγ: suppressed release
[5]
  release of IL-10: suppressed release
[6]
  release of TNFα: suppressed release
[7]
  differentiation of CD34+ stem cells towards erythropoiesis: enhanced the differentiation
[8]
  patients with an increase in erythrocyte progenitors: 59%
[9]; CD34+ cells from healthy donors and MF patients, cytokine cocktail
  erythrocyte maturation: promotes erythrocyte maturation
[9]; in the presence of ruxolitinib, dose-dependent
  suppressive effects of ruxolitinib on erythroid differentiation: rescued the suppressive effects
[10]
  release of IL-8: suppressed release
[11]
  median duration of RBC-TI: 39 weeks
  transfusion dependent MF patients who achieved RBC-TI ≥12 weeks: 36%
